Like-named read-outs stand apart in the source and are kept apart here. Starred links: 1 amine or outer side, 2 acyl side, 3 side chain; linkers in the order of their positions; H or OH if unused. Non-standard residues stand in square brackets, D forms with d. Residues, ends and D or L forms follow the SMILES beside them. Groups on a side chain read outwards from the residue. *: point of attachment. C20 diacid = O=C(O)CCCCCCCCCCCCCCCCCCC(=O)*; Pro(cis-4-F) = O=C(O)[C@@H]1C[C@H](F)CN1; γGlu = O=C(O)[C@H](CCC(=O)[*:2])N[*:1]; NMeI = CC[C@H](C)[C@H](NC)C(=O)O; Nle = CCCC[C@H](N)C(=O)O; AEEA = NCCOCCOCC(=O)O; Aib = CC(C)(N)C(=O)O
Legend:
[1] = target: T1, hCRHR2 (Homo sapiens, UniProt Q13324); test: HTRF cAMP assay, determination of hCRHR2 potency (peptide libraries 5 conc., purified peptides 11 conc.); format: cell-based
T1 sequence (Q13324 1-411): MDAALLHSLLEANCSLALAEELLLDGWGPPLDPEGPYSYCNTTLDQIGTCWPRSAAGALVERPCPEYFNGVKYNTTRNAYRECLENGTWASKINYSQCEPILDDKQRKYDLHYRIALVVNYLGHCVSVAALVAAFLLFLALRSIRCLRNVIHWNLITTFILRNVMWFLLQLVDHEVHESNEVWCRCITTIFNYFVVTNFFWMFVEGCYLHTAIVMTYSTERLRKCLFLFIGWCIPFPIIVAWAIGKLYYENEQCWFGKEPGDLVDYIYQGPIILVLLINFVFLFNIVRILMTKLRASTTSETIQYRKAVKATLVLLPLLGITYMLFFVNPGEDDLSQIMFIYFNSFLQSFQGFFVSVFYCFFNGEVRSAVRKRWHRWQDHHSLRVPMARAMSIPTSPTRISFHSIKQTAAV
How it was run: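 Agonist peptides are added to suspended, freshly thawed CHO-K1 cells that stably carry the human receptor. Intracellular cAMP competes with d2-cAMP for a cryptate-tagged antibody, lowering the FRET signal. A variable-slope sigmoid curve is fitted to obtain EC50.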

[2] = target: T2, hCRHR1 (Homo sapiens, UniProt P34998); test: HTRF cAMP assay, determination of hCRHR1 potency (peptide libraries 5 conc., purified peptides 11 conc.); format: cell-based
T2 sequence (P34998 24-415): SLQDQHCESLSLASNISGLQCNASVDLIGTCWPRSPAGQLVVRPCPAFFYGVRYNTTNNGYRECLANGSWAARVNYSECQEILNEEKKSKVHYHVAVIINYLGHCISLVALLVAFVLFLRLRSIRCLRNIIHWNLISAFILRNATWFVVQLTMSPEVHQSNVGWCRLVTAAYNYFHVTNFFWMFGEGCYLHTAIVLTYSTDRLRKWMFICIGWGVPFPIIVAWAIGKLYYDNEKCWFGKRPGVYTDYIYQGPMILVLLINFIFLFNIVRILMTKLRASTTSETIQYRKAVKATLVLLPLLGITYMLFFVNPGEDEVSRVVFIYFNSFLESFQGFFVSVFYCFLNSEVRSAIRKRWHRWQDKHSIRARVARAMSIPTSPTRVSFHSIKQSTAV
How it was run: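 CHO-K1 cells stably expressing human CRHR1, thawed from frozen stocks just before use, were stimulated in suspension with agonist peptides. cAMP was measured by HTRF competitive immunoassay (cryptate anti-cAMP antibody vs d2-cAMP).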

EC50 ([1]; Table 4, library peptides having X^38 = Nle, read-out: hCRHR2 pEC50 (converted))	EC50 ([2]; Table 4, library peptides having X^38 = Nle, read-out: hCRHR1 pEC50 (converted))	EC50 ([1]; library peptides, matched molecular pairs L vs Nle in position X^38, read-out: Potency hCRHR2 pEC50 (converted))	EC50 ([2]; library peptides, matched molecular pairs L vs Nle in position X^38, read-out: Potency hCRHR1 pEC50 (converted))	Compound
0.000126 µM	158 µM	–	–	CCCC[C@H](NC(=O)[C@@H](NC(=O)[C@H](CCC(=O)O)NC(=O)[C@H](C)NC(=O)[C@H](CC(N)=O)NC(=O)C(C)(C)NC(=O)[C@H](CCCCNC(=O)COCCOCCNC(=O)COCCOCCNC(=O)CC[C@H](NC(=O)CC[C@H](NC(=O)CCCCCCCCCCCCCCCCCCC(=O)O)C(=O)O)C(=O)O)NC(=O)[C@H](C)NC(=O)[C@H](CCC(N)=O)NC(=O)[C@H](CCC(=O)O)NC(=O)[C@H](CCCNC(=N)N)NC(=O)[C@H](C)NC(=O)[C@H](C)NC(=O)[C@H](CCCNC(=N)N)NC(=O)[C@H](C)NC(=O)[C@H](CCCNC(=N)N)NC(=O)[C@H](C)NC(=O)[C@H](CCC(N)=O)NC(=O)[C@H](CC(C)C)NC(=O)[C@H](CC(C)C)NC(=O)[C@H](CC(C)C)NC(=O)[C@@H](NC(=O)[C@H](CCC(N)=O)NC(=O)[C@H](CC(C)C)NC(=O)[C@H](CC(C)C)NC(=O)CNC(=O)[C@@H](NC(=O)[C@@H]1CCCN1C(=O)[C@@H](NC(=O)[C@H](CC(=O)O)NC(=O)[C@H](CC(C)C)NC(=O)[C@H](CO)NC(=O)[C@H](CC(C)C)NC(=O)[C@@H](NC(=O)[C@@H](NC)[C@@H](C)CC)C(C)C)C(C)C)[C@@H](C)CC)[C@@H](C)CC)[C@@H](C)CC)C(=O)N[C@@H](C)C(=O)N[C@@H](CCC(=O)O)C(=O)N[C@H](C(N)=O)C(C)C [compound 235] (H-[NMeI]VLSLDVPIGLLQILLLQARARAAREQAK([AEEA-AEEA-γGlu-γGlu-C20 diacid])[Aib]NAEI[Nle]AEV-NH2)
–	–	0.001 µM	25.1 µM	CC[C@H](C)[C@H](N)C(=O)N[C@H](C(=O)N[C@@H](CC(C)C)C(=O)N[C@@H](CO)C(=O)N[C@@H](CC(C)C)C(=O)N[C@@H](CC(=O)O)C(=O)N[C@H](C(=O)N1C[C@@H](F)C[C@H]1C(=O)N[C@H](C(=O)NCC(=O)N[C@@H](CC(C)C)C(=O)N[C@@H](CC(C)C)C(=O)N[C@@H](CCC(N)=O)C(=O)N[C@H](C(=O)N[C@@H](CC(C)C)C(=O)N[C@@H](CC(C)C)C(=O)N[C@H](C(=O)N[C@@H](CCC(N)=O)C(=O)N[C@@H](C)C(=O)N[C@@H](CCCNC(=N)N)C(=O)N[C@@H](C)C(=O)N[C@@H](CCCNC(=N)N)C(=O)N[C@@H](C)C(=O)N[C@@H](C)C(=O)N[C@@H](CCCNC(=N)N)C(=O)N[C@@H](CCC(=O)O)C(=O)N[C@@H](CCC(N)=O)C(=O)N[C@@H](C)C(=O)N[C@@H](CCCCNC(=O)COCCOCCNC(=O)COCCOCCNC(=O)CC[C@H](NC(=O)CC[C@H](NC(=O)CCCCCCCCCCCCCCCCCCC(=O)O)C(=O)O)C(=O)O)C(=O)N[C@H](C(=O)N[C@@H](CC(N)=O)C(=O)N[C@@H](C)C(=O)N[C@@H](CCC(=O)O)C(=O)N[C@H](C(=O)N[C@@H](CC(C)C)C(=O)N[C@@H](C)C(=O)N[C@@H](CCC(=O)O)C(=O)N[C@H](C(N)=O)C(C)C)[C@@H](C)CC)[C@@H](C)O)[C@@H](C)O)[C@@H](C)CC)[C@@H](C)CC)C(C)C)C(C)C [compound 80] (H-IVLSLDV[Pro(cis-4-F)]IGLLQILLTQARARAAREQAK([AEEA-AEEA-γGlu-γGlu-C20 diacid])TNAEILAEV-NH2)

— patent publication EP4810052A2, “HCRHR2 SELECTIVE POLYPEPTIDES” (Gubra A/S, priority 2023, dated 2026)
